Values quoted from earlier work in US20240398979A1, “Compositions and Methods for Treating Dopamine Disorders” (METAQOR LLC, priority 2020, published 2024).

What was measured:
[1] = system: methamphetamine use disorder; details: randomized controlled trials / meta-analyses

Molecule	benefit in treatment of MUD [1]	in vivo half-life [min]
CC1(C)O[C@@H]2[C@@H](CO[C@@]3(COS(N)(=O)=O)OC(C)(C)O[C@@H]23)O1 [Topiramate]	insufficient evidence of benefit for reducing MUD	–
O=C1CCc2ccc(OCCCCN3CCN(c4cccc(Cl)c4Cl)CC3)cc2N1 [aripiprazole]	insufficient evidence of benefit for reducing MUD	–
CNCC[C@@H](Oc1ccccc1C)c1ccccc1 [atomoxetine]	insufficient evidence of benefit for reducing MUD	–
NCC(CC(=O)O)c1ccc(Cl)cc1 (stereo not shown) [baclofen]	insufficient evidence of benefit for reducing MUD	–
CC(NC(C)(C)C)C(=O)c1cccc(Cl)c1 (stereo not shown) [bupropion]	not effective	–
NCC1(CC(=O)O)CCCCC1 [gabapentin]	insufficient evidence of benefit for reducing MUD	–
COC(=O)C(c1ccccc1)C1CCCCN1 (stereo not shown) [methylphenidate]	low-strength evidence that methylphenidate may reduce METH use	–
CN1CCN2c3ncccc3Cc3ccccc3C2C1 (stereo not shown) [mirtazapine]	not effective	–
O=C1CC[C@@]2(O)[C@H]3Cc4ccc(O)c5c4[C@@]2(CCN3CC2CC2)[C@H]1O5 [naltrexone]	insufficient evidence of benefit for reducing MUD	–
Cc1nccn1CC1CCc2c(c3ccccc3n2C)C1=O (stereo not shown) [ondansetron]	No effects	–
CN[C@H]1CC[C@@H](c2ccc(Cl)c(Cl)c2)c2ccccc21 [sertraline]	not effective	–
c1cnc2cc3c(cc2n1)[C@@H]1CNC[C@H]3C1 [varenicline]	insufficient evidence of benefit for reducing MUD	–
brain-derived neurotrophic factor (protein, UniProt P23560 19-247, looked up, neurotrophin) Neurotrophic factor BDNF …: APMKEANIRGQGGLAYPGVRTHGTLESVNGPKAGSRGLTSLADTFEHVIEELLDEDQKVRPNEENNKDADLYTSRVMLSSQVPLEPPLLFLLEEYKNYLDAANMSMRVRRHSDPARRGELSVCDSISEWVTAADKKTAVDMSGGTVTVLEKVPVSKGQLKQYFYETKCNPMGYTKEGCRGIDKRHWNSQCRTTQSYVRALTMDSKKRIGWRFIRIDTSCVCTLTIKRGR	–	< 5
